Patent US11390621B2, “Chiral indole compounds and their use” (ARIAGEN, INC., priority 2019, dated 2022)
“And” between values parts separate entries of the source, which are not always exact repeats. Equal entries are not always repeated. Where two headings read alike, the source gives them in different places.

Key:
[1] = CYP profiling: turnover in human liver microsomes, 30 min, no inhibitor; assay type: in vitro ADME; set-up: % Compound Metabolized at 30 min, No Inhibitor: concentration or dose not given beside the values; conditions: HLMs
Description: (§1) In order to investigate the contributions of CYP1A2 and CYP3A4 to the metabolism of the compounds of the present disclosure, human liver microsomes were incubated with the test compounds for 30 minutes in the presence of selective chemical inhibitors furafylline (1A2) and ketoconazole (3A4).

[2] = system: rat hepatocytes; experiment: Hepatocyte intrinsic clearance assay (metabolic stability), rat hepatocytes; assay type: in vitro ADME; conditions: Rat Hepatocytes; well stirred liver model, fu=1
Text: (§2) The liver is an important organ in the body for drug metabolism. This Example describes hepatocyte intrinsic clearance assays using both human and rat hepatocytes to evaluate the metabolic stability of the indole compounds disclosed herein. The parameters measured include t1/2 (half-life), CLint (intrinsic clearance), and EH (hepatic extraction ratio).
(§3) Testosterone (Lot FE111011-01) was obtained from Cerilliant (Round Rock, Tex.). 7-hydroxycoumarin (Lot 11631ED) was obtained from Sigma Aldrich (St. Louis, Mo.). Cryopreserved human hepatocytes pooled from ten donor males (X008001), cryopreserved male IRC/CD-1 mouse hepatocytes (M005052), INVITROGRO HI Medium (incubation), and INVITROGRO HT Medium (thawing) were obtained from Bioreclamation IVT (Baltimore, Md.). All solvents were obtained from commercial sources and used without further purification.
(§4) Each test compound was prepared as a 1 mM stock solution in DMSO. A 2 μM solution of test compound and positive controls were prepared in INVITROGRO HI Medium (incubation). These solutions were pre-warmed in a sterile incubator set to maintain 37° C., 5% CO2, and 98% humidity. Cryopreserved hepatocytes were prepared at a concentration of 2×10^6 living cells/mL in incubation media and pre-warmed in the incubator. The compound solutions and hepatocyte mixtures were then combined at a ratio of 1:1 (v:v). The final volume of the reaction mixture was 750 μL, containing 1 μM test compound (10 μM for 7-hydroxycoumarin) and […]. The reaction mixture was placed in the incubator on a plate shaker. After 0, 15, 30, 60, 90, and 120 minutes of incubation, 100 μL of reaction mixtures were removed from the incubation plate and mixed with 150 μL of ice-cold acetonitrile in a designated well of a 96-well crash plate. The 96-well crash plate was placed on ice for 15 min, and samples were centrifuged (3,600 RPM, 10 min, 4° C.) to precipitate protein. The supernatants were diluted 1:1 (v:v) with water containing 0.15 μM verapamil and/or 1 μM tolbutamide (internal standards for positive and negative modes, respectively) in a 96-well shallow injection plate. This plate was sealed for LC-MS analysis. All measurements were done in duplicate.
(§5) The residual compound remaining (% R) was determined from LC-MS peak areas by comparison to the zero time point. Metabolic half-life (t1/2) and intrinsic clearance (CLint) values were calculated from the slope of the plot of ln (% R) vs. time and the concentration of hepatocytes present in the incubation. Percent remaining at 60 minutes was calculated by plugging in the 60 minute value into the slope equation generated by the percent remaining time points.
(§6) In vivo hepatic clearance CLH was calculated using the well stirred liver model according to the following equation:
(§7) [formula] where QH is the total liver blood flow, fu is unbound fraction of the drug, and CL′int is defined as follows: CL′int=CLint×(10^6 cells/g of liver weight)×(g liver weight/kg of body weight). In the first approximation, used in this study, fu=1.
(§8) Hepatic extraction ratio EH was calculated using the following equation:
(§9) [formula] Corresponding physiological parameters used in calculations for all species are shown below in Table 3.

[3] = system: human hepatocytes; experiment: Hepatocyte intrinsic clearance assay (metabolic stability), human hepatocytes; assay type: in vitro ADME; conditions: Human Hepatocytes; for EH (hepatic extraction ratio): well stirred liver model, fu=1
Text: as §2, §3, §4, §5, §6, §7, §8, §9

[4] = target: T1, CYP3A4 (Homo sapiens, UniProt P08684); experiment: CYP profiling: human liver microsomes with CYP3A4 inhibitor ketoconazole; assay type: in vitro ADME; set-up: % Compound Metabolized at 30 min, CYP3A4 Inhibitor: concentration or dose not given beside the values; conditions: HLMs; for % Inhibition Relative to Negative Control, 3A4: 30 min
T1 construct: from tissue; host or cells: human liver microsomes
T1 sequence (P08684 whole entry): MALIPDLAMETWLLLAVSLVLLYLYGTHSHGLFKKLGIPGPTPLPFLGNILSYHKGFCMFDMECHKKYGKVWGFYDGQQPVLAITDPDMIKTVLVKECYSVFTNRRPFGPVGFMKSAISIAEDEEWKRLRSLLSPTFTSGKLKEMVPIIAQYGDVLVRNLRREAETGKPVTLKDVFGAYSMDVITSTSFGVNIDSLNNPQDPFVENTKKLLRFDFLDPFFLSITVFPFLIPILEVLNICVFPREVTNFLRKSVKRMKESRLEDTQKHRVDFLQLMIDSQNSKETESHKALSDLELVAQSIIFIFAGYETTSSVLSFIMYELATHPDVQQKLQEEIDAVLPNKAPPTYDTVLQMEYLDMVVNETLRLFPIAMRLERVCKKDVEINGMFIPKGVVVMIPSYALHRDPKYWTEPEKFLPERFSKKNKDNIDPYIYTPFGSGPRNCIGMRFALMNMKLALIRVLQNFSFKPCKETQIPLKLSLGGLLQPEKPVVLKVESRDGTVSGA
Description: as §1

[5] = Hepatocyte intrinsic clearance assay (metabolic stability), rat hepatocytes; assay type: in vitro ADME; conditions: rat, cryopreserved hepatocytes, Rat Hepatocytes, 1 μM test compound
Text: as §2, §3, §4, §5, §6, §7, §8, §9

[6] = Hepatocyte intrinsic clearance assay (metabolic stability), human hepatocytes; assay type: in vitro ADME; conditions: male, human, cryopreserved pooled hepatocytes, Human Hepatocytes, 1 μM test compound
Text: as §2, §3, §4, §5, §6, §7, §8, §9

[7] = In vivo pharmacokinetic studies in rats; set-up: species or system SD rats; conditions: for Tmax: read-out: Tmax
Description: This example describes pharmacokinetic (PK) studies of ARI-164, ARI-165, ARI-186, ARI-224, and ARI-226 in mice and rats. In the present studies, the test compounds were given to groups of mice and/or rats (N=3 in each group), intravenously (IV) at 2 mg/kg or orally (PO) at 10, 30, or 40 mg/kg. ARI-186, ARI-224 and ARI-226 were given orally to rats QD for 5 days at 10 mg/kg to assess whether decreased susceptibility to CYP1A1/1A2 metabolism would lead to increased accumulation. IV doses were formulated in DMSO, while PO doses were formulated in a 50/50 mixture of PEG400 and Tween 80 (single dose mouse and rat studies for ARI-164, ARI-165, ARI-186, ARI-224, ARI-226) or PEG400/Kolliphor HS15/Oleic Acid 45/45/10 (ARI-164 repeat dose rat study). Blood samples were collected at pre-dose and over a period of 24 hours post-dose. Plasma concentrations of the test compounds were determined by HPLC.

[8] = SD, rat, plasma, iv, 2 mg/kg, rats, single 2 mg/kg IV dose, Mean of 3 animals
[9] = SD, rat, plasma, iv, 2 mg/kg, rats, single 2 mg/kg IV dose, individual animal
[10] = Sprague-Dawley (SD), rat, plasma, iv, 2 mg/kg, rats, single 2 mg/kg IV dose, Mean of 3 animals
[11] = Sprague-Dawley (SD), rat, plasma, po, 10 mg/kg, rats, single 10 mg/kg PO dose, Mean of 3 animals
[12] = Sprague-Dawley (SD), rat, plasma, po, 10 mg/kg, rats, single 10 mg/kg PO dose, individual animal
[13] = rats, single 2 mg/kg IV dose, individual animal, 2 mg/kg
[14] = rats, single 10 mg/kg PO dose, individual animal, 10 mg/kg

## CCC(=O)c1csc(C(=O)c2c[nH]c3cc(F)ccc23)n1 [ARI-143, 1-(2-(6-fluoro-1H-indole-3-carbonyl)thiazol-4-yl)propan-1-one]
[1]
  % Compound Metabolized at 30 min, No Inhibitor: 69% and 91%
[2]
  EH (hepatic extraction ratio): 48.0% and 47.8% and 48.5% and 49.7% and 74.6%
[3]
  EH (hepatic extraction ratio): 26.1% and 25.5% and 25.7%
[4]
  % Compound Metabolized at 30 min, CYP3A4 Inhibitor: 82% and 92%
  % Inhibition Relative to Negative Control, 3A4: None

## N[C@@H](c1csc(C(=O)c2c[nH]c3ccccc23)n1)C(F)(F)F [ARI-229]
[1]
  % Compound Metabolized at 30 min, No Inhibitor: 0%
[5]
  half-life at 1 μM: 1 h
  hepatocyte CLint at 1 μM: 11.7 µL/min/1e6 cells
[2]
  EH (hepatic extraction ratio): 43.9%
[6]
  half-life at 1 μM: 2.3 h
  hepatocyte CLint at 1 μM: 5.03 µL/min/1e6 cells
[3]
  EH (hepatic extraction ratio): 11.4%
[4]
  % Compound Metabolized at 30 min, CYP3A4 Inhibitor: 0%
  % Inhibition Relative to Negative Control, 3A4: None

## CC(C)(O)c1csc(C(=O)c2c[nH]c3cc(F)ccc23)n1 [ARI-220, (6-fluoro-1H-indol-3-yl)(4-(2-hydroxypropan-2-yl)thiazol-2-yl)methanone]
[1]
  % Compound Metabolized at 30 min, No Inhibitor: 41%
[5]
  half-life at 1 μM: 2.4 h
  hepatocyte CLint at 1 μM: 4.77 µL/min/1e6 cells
[2]
  EH (hepatic extraction ratio): 24.2%
[6]
  half-life at 1 μM: 1.4 h
  hepatocyte CLint at 1 μM: 8.33 µL/min/1e6 cells
[3]
  EH (hepatic extraction ratio): 21.6%
[4]
  % Compound Metabolized at 30 min, CYP3A4 Inhibitor: 27%
  % Inhibition Relative to Negative Control, 3A4: 34%

## CC[C@H](O)c1csc(C(=O)c2c[nH]c3cc(F)ccc23)n1 [ARI-164, (S)-(6-Fluoro-1H-indol-3-yl)(4-(1-hydroxypropyl)thiazol-2-yl)methanone]
[1]
  % Compound Metabolized at 30 min, No Inhibitor: 37%
[7]; [8]
  AUC(0-inf): 21500 ng·h/mL
  clearance: 1.55 mL/min/kg
[7]; SD, rat, plasma, iv, 2 mg/kg, rats, single 2 mg/kg IV dose, Mean of 3 animals, read-out: AUClast
  AUC(0-t): 21400 ng·h/mL
[7]; [9]
  AUC(0-inf): 20500 ng·h/mL
  clearance: 1.63 mL/min/kg
  half-life: 3.91 h
  Tmax: 0.083 h
[7]; SD, rat, plasma, iv, 2 mg/kg, rats, single 2 mg/kg IV dose, individual animal, read-out: AUClast
  AUC(0-t): 20300 ng·h/mL
[7]; SD, rat, plasma, iv, 2 mg/kg, rats, single 2 mg/kg IV dose, individual animal, read-out: Cmax
  Cmax: 42200 ng/mL
[7]; [10]
  MRT inf: 1.69 h
  MRT last: 1.63 h
  half-life: 2.85 h
  Tmax: 0.083 h
[7]; Sprague-Dawley (SD), rat, plasma, iv, 2 mg/kg, rats, single 2 mg/kg IV dose, Mean of 3 animals, read-out: Cmax
  Cmax: 40700 ng/mL
[7]; Sprague-Dawley (SD), rat, plasma, iv, 2 mg/kg, rats, single 2 mg/kg IV dose, Mean of 3 animals, read-out: Vss
  Vd: 0.155 L/kg
[7]; [11]
  AUC(0-inf): 2090 ng·h/mL
  MRT inf: 2.87 h
  MRT last: 2.85 h
  half-life: 1.37 h
  Tmax: 1.67 h
[7]; Sprague-Dawley (SD), rat, plasma, po, 10 mg/kg, rats, single 10 mg/kg PO dose, Mean of 3 animals, read-out: AUClast
  AUC(0-t): 2090 ng·h/mL
[7]; Sprague-Dawley (SD), rat, plasma, po, 10 mg/kg, rats, single 10 mg/kg PO dose, Mean of 3 animals, read-out: Cmax
  Cmax: 511 ng/mL
[7]; [12]
  AUC(0-inf): 2110 ng·h/mL
  MRT inf: 2.65 h
  MRT last: 2.64 h
  Tmax: 2 h
[7]; Sprague-Dawley (SD), rat, plasma, po, 10 mg/kg, rats, single 10 mg/kg PO dose, individual animal, read-out: AUClast
  AUC(0-t): 2110 ng·h/mL
[7]; Sprague-Dawley (SD), rat, plasma, po, 10 mg/kg, rats, single 10 mg/kg PO dose, individual animal, read-out: Cmax
  Cmax: 532 ng/mL
[7]; Sprague-Dawley (SD), rat, plasma, rats, 10 mg/kg PO vs 2 mg/kg IV, read-out: F (Bioavailability)
  bioavailability: 1.94%
[7]; male rats, repeat 30 mg/kg oral dose, Day 1, Mean
  Cmax/Dose: 16.6 kg·ng/mL/mg
[7]; male rats, repeat 30 mg/kg oral dose, Day 1, Mean row
  Tlast^a: 8 h
[7]; male rats, repeat 30 mg/kg oral dose, Day 7, Mean
  Cmax/Dose: 0.245 kg·ng/mL/mg
[7]; male rats, repeat 30 mg/kg oral dose, Day 7, range printed in SD row
  Tlast^a: (1-4) hr
[7]; male, Sprague-Dawley (SD), rat, plasma, po, 30 mg/kg, male rats, repeat 30 mg/kg oral dose, Day 1, Mean
  Cmax at 1 day: 499 ng/mL
[7]; male, Sprague-Dawley (SD), rat, plasma, po, 30 mg/kg, male rats, repeat 30 mg/kg oral dose, Day 1, Mean row, read-out: Tmax^a
  Tmax at 1 day: 1 h
[7]; male, Sprague-Dawley (SD), rat, plasma, po, 30 mg/kg, male rats, repeat 30 mg/kg oral dose, Day 1, Mean, read-out: AUCTlast
  AUC(0-t): 1430 ng·h/mL
[7]; male, Sprague-Dawley (SD), rat, plasma, po, 30 mg/kg, male rats, repeat 30 mg/kg oral dose, Day 7, Mean
  Cmax at 7 day: 2.93 ng/mL
[7]; male, Sprague-Dawley (SD), rat, plasma, po, 30 mg/kg, male rats, repeat 30 mg/kg oral dose, Day 7, Mean row
  Tmax at 7 day: 1 h
[7]; rats, 30 mg/kg QD
  decrease in exposure after repeat oral dosing: greater than 90%
[7]; [13]
  AUCinf: 23000 ng·h/mL and 21000 ng·h/mL
  AUClast: 23000 ng·h/mL and 21000 ng·h/mL
  Cl: 1.45 mL/min/kg and 1.58 mL/min/kg
  Cmax: 35400 ng/mL and 44500 ng/mL
  MRTinf: 1.53 h and 2.5 h and 1.04 h
  MRTlast: 1.38 h and 2.49 h and 1.03 h
  T1/2: 2.39 h and 2.24 h
  Vss: 0.149 L/kg and 0.218 L/kg and 0.0986 L/kg
[7]; [14]
  AUCinf: 2660 ng·h/mL and 1500 ng·h/mL
  AUClast: 2650 ng·h/mL and 1500 ng·h/mL
  Cmax: 646 ng/mL and 354 ng/mL
  MRTinf: 3.05 h and 2.92 h
  MRTlast: 3.02 h and 2.88 h
  T1/2: 0.56 h and 0.746 h and 2.82 h
[2]
  EH (hepatic extraction ratio): 33.3% and 34.6% and 28.8% and 35.0% and 48.8%
[6]
  half-life at 1 μM: 0.7 h
  hepatocyte CLint at 1 μM: 15.7 µL/min/1e6 cells
[3]; 1 μM test compound
  CLint: 13.556 μL/min/10^6 cells and 15.446 μL/min/10^6 cells and 13.712 μL/min/10^6 cells and 15.383 μL/min/10^6 cells
[3]
  EH (hepatic extraction ratio): 25.3% and 24.6% and 25.2% and 19.9%
[4]
  % Compound Metabolized at 30 min, CYP3A4 Inhibitor: 34%
  % Inhibition Relative to Negative Control, 3A4: 8%
